Source: ChEMBL document CHEMBL4340516, “Synthesis and antitumor activity of novel steroidal imidazolium salt derivatives” (Eur J Med Chem, 2019)
pIC50: −log10 of the molar value.

Tests used:
Assay type in all cases: functional, cell-based
HL-60 = assay: Antiproliferative activity against human HL60 cells assessed as reduction in cell viability incubated for 48 hrs by MTS assay; details: HL-60, 48 h
SW480 = assay: Antiproliferative activity against human SW480 cells assessed as reduction in cell viability incubated for 48 hrs by MTS assay; details: SW480, 48 h
MCF7 = assay: Antiproliferative activity against human MCF7 cells assessed as reduction in cell viability incubated for 48 hrs by MTS assay; details: MCF7, 48 h
SMMC-7721 = assay: Antiproliferative activity against human SMMC7721 cells assessed as reduction in cell viability incubated for 48 hrs by MTS assay; details: SMMC-7721, 48 h
A549 = assay: Antiproliferative activity against human A549 cells assessed as reduction in cell viability incubated for 48 hrs by MTS assay; details: A549, 48 h

Row | SMILES | pIC50 (HL-60) | pIC50 (SW480) | pIC50 (MCF7) | pIC50 (SMMC-7721) | pIC50 (A549)
1 | C[C@@H]1CC[C@@]2(OC1)O[C@H]1C[C@H]3[C@@H]4CC=C5C[C@H](n6c[n+](CC(=O)c7cccc(Br)c7)c7ccccc76)CC[C@]5(C)[C@H]4CC[C@]3(C)[C@H]1[C@@H]2C | 5.87 | 5.76 | 5.82 | 5.76 | 5.75
2 | C[C@@H]1CC[C@@]2(OC1)O[C@H]1C[C@H]3[C@@H]4CC=C5C[C@@H](n6ccnc6)CC[C@]5(C)[C@H]4CC[C@]3(C)[C@H]1[C@@H]2C | 5.02 | < 4.70 | 4.84 | 5.01 | 5.00
3 | CC(=O)O[C@H]1CC[C@@]2(C)C(=CC[C@H]3[C@@H]4CC[C@H](n5cc[n+](CC(=O)c6ccc7ccccc7c6)c5)[C@@]4(C)CC[C@@H]32)C1 | 5.90 | 5.35 | 5.68 | 5.76 | 5.36
4 | Cc1cc2c(cc1C)[n+](CC(=O)c1ccccc1)cn2[C@@H]1CC[C@@]2(C)C(=CC[C@H]3[C@@H]4CC[C@H]([C@H](C)CCCC(C)C)[C@@]4(C)CC[C@@H]32)C1 | 6.55 | 4.98 | 5.01 | 5.75 | 5.09
5 | CC(C)CCC[C@@H](C)[C@H]1CC[C@H]2[C@@H]3CC=C4C[C@H](n5cc[n+](CC(=O)c6ccc7ccccc7c6)c5)CC[C@]4(C)[C@H]3CC[C@]12C | 4.97 | 4.98 | < 4.70 | 5.73 | 5.05
6 | COc1ccc(C(=O)C[n+]2ccn([C@H]3CC[C@@]4(C)C(=CC[C@H]5[C@@H]6C[C@@H]7O[C@]8(CC[C@@H](C)CO8)[C@@H](C)[C@@H]7[C@@]6(C)CC[C@@H]54)C3)c2)cc1 | 6.03 | 5.38 | 5.71 | 5.79 | 5.92
7 | CC(=O)O[C@H]1CC[C@@]2(C)C(=CC[C@H]3[C@@H]4CC[C@H](n5cc[n+](CC(=O)c6ccccc6)c5)[C@@]4(C)CC[C@@H]32)C1 | 5.19 | 4.95 | 5.04 | 4.92 | < 4.70
8 | CC(C)CCC[C@@H](C)[C@H]1CC[C@H]2[C@@H]3C[C@H](n4cc[n+](Cc5ccccc5Br)c4)[C@]45C[C@H]4CC[C@]5(C)[C@H]3CC[C@]12C | 5.26 | 4.96 | 4.97 | 5.94 | 5.12
9 | CC(C)CCC[C@@H](C)[C@H]1CC[C@H]2[C@@H]3CC=C4C[C@H](n5c[n+](Cc6ccccc6Br)c6ccccc65)CC[C@]4(C)[C@H]3CC[C@]12C | 5.35 | 4.97 | 5.05 | 5.81 | 5.14
10 | CC(C)CCC[C@@H](C)[C@H]1CC[C@H]2[C@@H]3CC=C4C[C@H](n5cnc6ccccc65)CC[C@]4(C)[C@H]3CC[C@]12C | < 4.70 | < 4.70 | < 4.70 | < 4.70 | < 4.70
11 | CC(C)CCC[C@@H](C)[C@H]1CC[C@H]2[C@@H]3C[C@H](n4ccnc4)[C@]45C[C@H]4CC[C@]5(C)[C@H]3CC[C@]12C | 5.70 | 4.78 | < 4.70 | 5.67 | 4.93
12 | CC(C)CCC[C@@H](C)[C@H]1CC[C@H]2[C@@H]3CC=C4C[C@H](n5cc[n+](CC(=O)c6cccc(Br)c6)c5)CC[C@]4(C)[C@H]3CC[C@]12C | 5.00 | 5.20 | 5.07 | 5.77 | 5.14
13 | c1c[nH]cn1 [IMIDAZOLE] | < 4.70 | < 4.70 | < 4.70 | < 4.70 | < 4.70
14 | C[C@@H]1CC[C@@]2(OC1)O[C@H]1C[C@H]3[C@@H]4CC=C5C[C@@H](n6cc[n+](CC(=O)c7ccccc7)c6)CC[C@]5(C)[C@H]4CC[C@]3(C)[C@H]1[C@@H]2C | 5.93 | 5.10 | 5.25 | 5.67 | 5.73
15 | C[C@@H]1CC[C@@]2(OC1)O[C@H]1C[C@H]3[C@@H]4CC=C5C[C@H](n6cnc7ccccc76)CC[C@]5(C)[C@H]4CC[C@]3(C)[C@H]1[C@@H]2C | < 4.70 | < 4.70 | < 4.70 | < 4.70 | < 4.70
16 | Cc1cc2c(cc1C)[n+](Cc1ccc3ccccc3c1)cn2[C@@H]1CC[C@@]2(C)C(=CC[C@H]3[C@@H]4C[C@@H]5O[C@]6(CC[C@@H](C)CO6)[C@@H](C)[C@@H]5[C@@]4(C)CC[C@@H]32)C1 | 6.38 | 5.80 | 5.72 | 6.23 | 5.29

Row | SMILES | pIC50 (HL-60) | pIC50 (SW480) | pIC50 (MCF7) | pIC50 (SMMC-7721) | pIC50 (A549)
17 | C[C@@H]1CC[C@@]2(OC1)O[C@H]1C[C@H]3[C@@H]4CC=C5C[C@@H](n6cc[n+](Cc7ccccc7Br)c6)CC[C@]5(C)[C@H]4CC[C@]3(C)[C@H]1[C@@H]2C | 6.04 | 5.27 | 5.73 | 5.64 | 5.52
18 | C[C@@H]1CC[C@@]2(OC1)O[C@H]1C[C@H]3[C@@H]4C[C@H](n5cc[n+](CC(=O)c6ccc7ccccc7c6)c5)[C@]56C[C@H]5CC[C@]6(C)[C@H]4CC[C@]3(C)[C@H]1[C@@H]2C | 5.99 | 5.40 | 5.65 | 5.46 | 5.14
19 | C[C@@H]1CC[C@@]2(OC1)O[C@H]1C[C@H]3[C@@H]4CC=C5C[C@H](n6ccnc6)CC[C@]5(C)[C@H]4CC[C@]3(C)[C@H]1[C@@H]2C | < 4.70 | < 4.70 | < 4.70 | < 4.70 | < 4.70
20 | CC(C)CCC[C@@H](C)[C@H]1CC[C@H]2[C@@H]3CC=C4C[C@@H](O)CC[C@]4(C)[C@H]3CC[C@]12C [CHOLESTEROL] | < 4.70 | < 4.70 | < 4.70 | < 4.70 | < 4.70
21 | CC(C)CCC[C@@H](C)[C@H]1CC[C@H]2[C@@H]3CC=C4C[C@@H](n5cc[n+](CC(=O)c6ccccc6)c5)CC[C@]4(C)[C@H]3CC[C@]12C | 5.11 | 5.18 | 5.05 | 5.85 | 5.09
22 | Cc1cc2c(cc1C)[n+](CC(=O)c1ccccc1)cn2[C@@H]1CC[C@@]2(C)C(=CC[C@H]3[C@@H]4C[C@@H]5O[C@]6(CC[C@@H](C)CO6)[C@@H](C)[C@@H]5[C@@]4(C)CC[C@@H]32)C1 | 6.36 | 5.49 | 5.54 | 6.05 | 5.02
23 | C[C@@H]1CC[C@@]2(OC1)O[C@H]1C[C@H]3[C@@H]4CC=C5C[C@@H](n6cc[n+](CC(=O)c7ccc8ccccc8c7)c6)CC[C@]5(C)[C@H]4CC[C@]3(C)[C@H]1[C@@H]2C | 5.86 | 5.18 | 5.23 | 5.26 | 5.46
24 | CC(=O)O[C@H]1C(=O)[C@@]2(C)[C@H]([C@H](OC(=O)c3ccccc3)[C@]3(O)C[C@H](OC(=O)[C@H](O)[C@@H](NC(=O)c4ccccc4)c4ccccc4)C(C)=C1C3(C)C)[C@]1(OC(C)=O)CO[C@@H]1C[C@@H]2O [PACLITAXEL] | > 8.10 | > 8.10 | > 8.10 | > 8.10 | > 8.10
25 | CC(=O)O[C@H]1CC[C@@]2(C)C(=CC[C@H]3[C@@H]4CC[C@H](n5ccnc5)[C@@]4(C)CC[C@@H]32)C1 | < 4.70 | < 4.70 | < 4.70 | < 4.70 | < 4.70
26 | COc1ccc(C(=O)C[n+]2cn([C@@H]3CC[C@@]4(C)C(=CC[C@H]5[C@@H]6CC[C@H]([C@H](C)CCCC(C)C)[C@@]6(C)CC[C@@H]54)C3)c3ccccc32)cc1 | 5.36 | 5.00 | 5.01 | 5.84 | 5.12
27 | C[C@@H]1CC[C@@]2(OC1)O[C@H]1C[C@H]3[C@@H]4CC=C5C[C@H](n6c[n+](CC(=O)c7ccccc7)c7ccccc76)CC[C@]5(C)[C@H]4CC[C@]3(C)[C@H]1[C@@H]2C | 5.92 | 5.59 | 5.60 | 5.74 | 5.59
28 | C[C@@H]1CC[C@@]2(OC1)O[C@H]1C[C@H]3[C@@H]4C[C@H](n5cc[n+](Cc6ccc7ccccc7c6)c5)[C@]56C[C@H]5CC[C@]6(C)[C@H]4CC[C@]3(C)[C@H]1[C@@H]2C | 5.91 | 5.39 | 5.71 | 5.61 | 5.31
29 | c1ccc2[nH]cnc2c1 [BENZIMIDAZOLE] | < 4.70 | < 4.70 | < 4.70 | < 4.70 | < 4.70
30 | C[C@@H]1CC[C@@]2(OC1)O[C@H]1C[C@H]3[C@@H]4CC=C5C[C@H](n6cc[n+](Cc7ccc8ccccc8c7)c6)CC[C@]5(C)[C@H]4CC[C@]3(C)[C@H]1[C@@H]2C | 6.00 | 5.80 | 5.96 | 5.94 | 5.95
31 | CC(C)CCC[C@@H](C)[C@H]1CC[C@H]2[C@@H]3CC=C4C[C@@H](n5cc[n+](Cc6ccc7ccccc7c6)c5)CC[C@]4(C)[C@H]3CC[C@]12C | 5.27 | 5.03 | 5.08 | 5.85 | 5.16
